One data set deals with ROCK2 (Homo sapiens, UniProt O75116). In words: Kinase inhibition (ROCKI & ROCKII), radiometric 33P-ATP biochemical assay. The conditions noted are these: for IC50: ROCK 1 nM, 120 min at room temperature. The method, then:
On-target activity against ROCK was measured in a biochemical assay, using the following reagents: Base Reaction buffer; 20 mM Hepes (pH 7.5), 10 mM MgCl2, 1 mM EGTA, 0.02% Brij35, 0.02 mg/ml BSA, 0.1 mM Na3VO4, 2 mM DTT, 1% DMSO. Required cofactors are added individually to each kinase reaction. The reaction procedure first involved the preparation of a peptide substrate in a freshly prepared reaction buffer. Required cofactors were then added to the substrate solution. ROCK (1 nM final concentration) was then delivered to the substrate solution. After gentle mix, DMSO solutions of the test compounds were added to the enzyme. Substrate mix ^33P-ATP (specific activity 0.01 μCi/μl final) was then delivered into the reaction mixture to initiate the reaction. The kinase reaction was incubated for 120 min. at room temperature. Reactions were then spotted onto P81 ion exchange paper (Whatman #3698-915). Filters were washed extensively in 0.1% Phosphoric acid. A radiometric count was then performed and IC50 values were subsequently determined.
The IC50 values obtained (in accordance with the protocol set forth above) are represented as follows: “+++” means IC50 below 0.1 μM, “++” means IC50 between 0.1 μM and 1 μM; “+” means IC50 between 1 and 10 μM and “ND” means “not determined yet”.

A short description of data set [1]: Stability assay in human plasma. The following applies: 1 μM compound, LC-MS/MS, read-out: t½ human plasma. In kind it is in vitro ADME. How it is done:
(§1) Compounds are incubated at a concentration of 1 μM in rat (mice or rabbit) or human plasma. Samples are taken at fixed time points and the remnant of compound is determined by LC-MS/MS after protein precipitation. Half life is expressed in minutes.

Data set [2] has as its system MLC-T18/S19 phosphorylation. In words: Myosin light chain phosphorylation assay (ELISA) in A7r5 cells. It is filed as cell-based, Rat. The following applies: for EC50: Rattus norvegicus, MLC-T18/S19 phosphorylation, A7r5 cells, serum-free medium; for functional activity in the MLC phosphorylation assay (in words): FIG. 1. How it is done: Rat smooth muscle cell line A7r5 is used. The endogenous expression of ROCK esults in a constitutive phosphorylation of the regulatory myosin light chain at T18/S19. A7r5 cells were plated in DMEM supplemented with 10% FCS in multiwall cell culture plates. After serum starvation overnight, cells were incubated with compounds in serum-free medium.
Quantification of MLC-T18/S19 phosphorylation is assesses in 96 well-plates via ELISA using a phspho-MLC-T18/S19 specific antibody and a secondary detection antibody. Raw data were converted into percent substrate phosphorylation relative to high controls, which were set to 100%.
EC50 values were determined using GraphPad Prism 5.01 software using a nonlinear regression curve fit with variable hill slope.
The EC50 values obtained (in accordance with the protocols set forth above) are represented as follows: “+++” means EC50 below 0.3 μM, “++” means EC50 between 0.3 μM and 1 μM; “+” means EC50 between 1 and 10 μM and “−” means EC50>10 μM.
(ELISA stands for enzyme-linked immunosorbent assay.)

Data set [3] is described as follows: Stability in plasma, species not stated. It is filed as in vitro ADME. The following applies: point C.2.1. The method, then: as §1
A short description of data set [4]: Stability assay in rabbit aqueous humor. It is filed as in vitro ADME. The conditions noted are these: for half-life at 1 μM: rabbit, aqueous humor, 1 μM in rabbit aqueous humor, read-out: t½ AH. How it is done: Compounds are incubated at a concentration of 1 μM in rabbit aqueous humor (AH). Samples are taken at fixed time points and the remnant of compound is determined by LC-MS/MS after protein precipitation. Half life is expressed in minutes.

Entries after “also recorded” stand apart in the source; their conditions may differ.

Chain of ROCK2 (O75116 whole entry, species assumed): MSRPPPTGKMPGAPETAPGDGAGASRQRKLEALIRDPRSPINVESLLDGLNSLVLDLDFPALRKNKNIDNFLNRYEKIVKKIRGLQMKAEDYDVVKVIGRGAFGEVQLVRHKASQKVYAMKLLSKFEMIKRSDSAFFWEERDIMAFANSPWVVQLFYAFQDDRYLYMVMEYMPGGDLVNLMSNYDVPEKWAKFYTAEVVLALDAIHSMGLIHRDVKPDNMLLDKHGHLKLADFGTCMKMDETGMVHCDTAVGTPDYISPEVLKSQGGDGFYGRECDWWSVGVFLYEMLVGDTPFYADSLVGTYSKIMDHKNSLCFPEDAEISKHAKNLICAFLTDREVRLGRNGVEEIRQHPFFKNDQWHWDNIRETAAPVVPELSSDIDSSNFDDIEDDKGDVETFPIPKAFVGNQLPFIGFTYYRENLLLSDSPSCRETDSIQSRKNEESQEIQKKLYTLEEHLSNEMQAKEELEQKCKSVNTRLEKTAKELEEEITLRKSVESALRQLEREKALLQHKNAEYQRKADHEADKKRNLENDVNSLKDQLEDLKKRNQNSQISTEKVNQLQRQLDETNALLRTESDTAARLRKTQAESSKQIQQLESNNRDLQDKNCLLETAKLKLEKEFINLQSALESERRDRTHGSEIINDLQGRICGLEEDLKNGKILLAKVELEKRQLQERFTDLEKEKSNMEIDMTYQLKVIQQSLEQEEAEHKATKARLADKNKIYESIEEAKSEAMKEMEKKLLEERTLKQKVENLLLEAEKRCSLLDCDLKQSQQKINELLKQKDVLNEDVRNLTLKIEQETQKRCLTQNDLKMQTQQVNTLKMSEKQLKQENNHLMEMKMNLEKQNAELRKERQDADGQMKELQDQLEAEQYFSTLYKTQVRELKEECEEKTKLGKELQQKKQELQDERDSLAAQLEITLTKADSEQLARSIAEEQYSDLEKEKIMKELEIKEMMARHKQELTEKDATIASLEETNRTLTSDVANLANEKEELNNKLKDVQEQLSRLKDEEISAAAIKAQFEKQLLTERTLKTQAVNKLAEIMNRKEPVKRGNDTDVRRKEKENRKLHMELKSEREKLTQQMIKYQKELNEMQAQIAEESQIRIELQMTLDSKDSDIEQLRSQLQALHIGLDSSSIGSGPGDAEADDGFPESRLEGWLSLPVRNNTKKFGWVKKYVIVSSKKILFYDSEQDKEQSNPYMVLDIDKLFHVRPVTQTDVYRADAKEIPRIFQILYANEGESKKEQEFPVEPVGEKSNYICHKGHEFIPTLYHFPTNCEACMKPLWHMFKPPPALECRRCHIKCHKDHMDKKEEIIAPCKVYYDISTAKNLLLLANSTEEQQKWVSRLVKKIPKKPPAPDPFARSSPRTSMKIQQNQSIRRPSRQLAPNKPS

On to `O=C(OCC1CC1)c1cccc(CN2CCCC(Nc3cccc4cnccc34)C2)c1` (stereo not shown) [Compound 1], for which the IC50 on ROCK2 was < 100 nM. In data set [1], the half-life at 1 μM is 49 min.

At ROCK2, `O=C(OCc1ccccc1)c1cccc(CN2CCCC(Nc3cccc4cnccc34)C2)c1` (stereo not shown) [Compound 2] gave an IC50 of 100 to 1000 nM. The half-life at 1 μM in data set [1] was 53 min.

In turn, `O=C(Oc1ccccc1)c1cccc(CN2CCCC(Nc3cccc4cnccc34)C2)c1` (stereo not shown) [Compound 3] had an IC50 at ROCK2 of 100 to 1000 nM. In addition, the half-life at 1 μM in data set [1] is 19 min.

On to `CCCOC(=O)Cc1cccc(CN2CCCC(Nc3ccc4[nH]ncc4c3)C2)c1` (stereo not shown) [Compound 4], for which the half-maximal inhibitory concentration (IC50) on ROCK2 is < 100 nM.

`O=C(OCCO)c1cccc(CN2CCCC(Nc3cccc4cnccc34)C2)c1` (stereo not shown) [Compound 5]: the IC50 at ROCK2 is < 100 nM.

`CCSC(=O)c1cccc(CN2CCCC(Nc3cccc4cnccc34)C2)c1` (stereo not shown) [Compound 6] registered an IC50 against ROCK2 of 100 to 1000 nM.

For `COC(=O)c1cccc(CN2CCCC(Nc3ccc4[nH]ncc4c3)C2)c1` (stereo not shown) [Compound 7], on ROCK2, the IC50 was < 100 nM. The compound further had an EC50 in data set [2] of 1000 to 10000 nM.

`COC(=O)c1cccc(CN2CCCC(Nc3cccc4cnccc34)C2)c1` (stereo not shown) [Compound 8] gave an IC50 on ROCK2 of 100 to 1000 nM.

With `CCCOC(=O)c1cccc(CN2CCCC(Nc3ccc4[nH]ncc4c3)C2)c1` (stereo not shown) [Compound 9], at ROCK2, the IC50 is < 100 nM. The EC50 in data set [2] was in the range of 300 to 1000 nM.

As for `O=C(Oc1ccccc1)c1cccc(CN2CCCC(Nc3ccc4[nH]ncc4c3)C2)c1` (stereo not shown) [Compound 10], the IC50 against ROCK2 was < 100 nM. In data set [1], the half-life at 1 μM is < 5 min.

Regarding `COC(=O)Cc1cccc(CN2CCCC(Nc3ccc4[nH]ncc4c3)C2)c1` (stereo not shown) [Compound 11], at ROCK2, the IC50 was < 100 nM.

For `COCCOC(=O)Cc1cccc(CN2CCCC(Nc3ccc4[nH]ncc4c3)C2)c1` (stereo not shown) [Compound 12], the IC50 on ROCK2 was < 100 nM.

With `CCCOC(=O)c1cccc(CN2CCCC(Nc3cccc4cnccc34)C2)c1` (stereo not shown) [Compound 13], at ROCK2, the IC50 is 100 to 1000 nM.

Take `O=C(OCC1CCCO1)c1cccc(CN2CCCC(Nc3cccc4cnccc34)C2)c1` (stereo not shown) [Compound 15]: on ROCK2, the IC50 is < 100 nM. Further, the half-life at 1 μM in data set [1] stood at 5 min. Moreover, in data set [2], the 50% effective concentration (EC50) is 1000 to 10000 nM.

As to `CCSC(=O)c1cccc(CN2CCCC(Nc3ccc4[nH]ncc4c3)C2)c1` (stereo not shown) [Compound 16], the half-maximal inhibitory concentration (IC50) against ROCK2 is < 100 nM.

In the case of `O=C(OCC1CC1)c1cccc(CN2CCCC(Nc3ccc4[nH]ncc4c3)C2)c1` (stereo not shown) [Compound 17], the “half life in plasma (in words)” value in data set [3] is reported as “short half life”. The IC50 against ROCK2 is < 100 nM. In addition, at ROCK2 (summary of point C1.1), the “inhibitory activity against ROCK (in words)” value is “strong inhibitory activity”. Further, the half-life at 1 μM in data set [1] was 25 min; in data set [4], > 120 min. Moreover, in data set [4] (text summary of point C.2.3), the “half-life in aqueous humor compared with plasma (in words)” value was “significantly longer half-life in aqueous humor than in plasma”. Moreover, the “functional activity in the MLC phosphorylation assay (in words)” value in data set [2] is “display functional activity”. Further, the EC50 in data set [2] was 300 to 1000 nM.

Regarding `O=C(OCc1ccccc1)c1cccc(CN2CCCC(Nc3ccc4[nH]ncc4c3)C2)c1` (stereo not shown) [Compound 18], the concentration for half-maximal inhibition (IC50) against ROCK2 was < 100 nM. Besides, the half-life at 1 μM in data set [1] amounted to 26 min.

For `O=C(OCCO)c1cccc(CN2CCCC(Nc3ccc4[nH]ncc4c3)C2)c1` (stereo not shown) [Compound 19], the IC50 on ROCK2 is < 100 nM. Moreover, the EC50 in data set [2] is 300 to 1000 nM.

Turning to `COC(=O)c1cccc(CN2CCC(Nc3cccc4cnccc34)C2)c1` (stereo not shown) [Compound 20], on ROCK2, the half-inhibitory concentration (IC50) is < 100 nM.

Turning to `CCOC(=O)c1cccc(CN2CCC(Nc3cccc4cnccc34)C2)c1` (stereo not shown) [Compound 21], the IC50 against ROCK2 fell in the range of 100 to 1000 nM.

`COC(=O)c1ccc(CN2CCCC(Nc3ccc4[nH]ncc4c3)C2)s1` (stereo not shown) [Compound 23]: the half-maximal inhibitory concentration (IC50) on ROCK2 was < 100 nM.

Consider `COC(=O)c1ccc(CN2CCCC(Nc3ccc4[nH]ncc4c3)C2)[nH]1` (stereo not shown) [Compound 24], for which the IC50 on ROCK2 is < 100 nM.

Take `COC(=O)c1ccc(NC(=O)c2cccc(CN3CCCC(Nc4cccc5cnccc45)C3)c2)cc1` (stereo not shown) [Compound 25]: the half-life at 1 μM in data set [4] is > 120 min.

`O=C1OCC(CCNC(=O)c2cccc(CN3CCCC(Nc4cccc5cnccc45)C3)c2)O1` (stereo not shown) [Compound 27]: at ROCK2, the IC50 is < 100 nM. Further, the half-life at 1 μM worked out at 4 min in data set [1] and 111 min in data set [4].

For the compound `O=C1OCC(CCNC(=O)c2cccc(CN3CCCC(Nc4ccc5[nH]ncc5c4)C3)c2)O1` (stereo not shown) [Compound 29], the IC50 against ROCK2 was < 100 nM. The half-life at 1 μM in data set [1] is < 5 min; in data set [4] it was > 120 min.

With `COC(=O)c1cccc(NC(=O)c2cccc(CN3CCCC(Nc4cccc5cnccc45)C3)c2)c1` (stereo not shown) [Compound 30], the IC50 against ROCK2 was < 100 nM. Also, in data set [4], the half-life at 1 μM was > 120 min.

For the compound `COC(=O)Cc1cccc(NC(=O)c2cccc(CN3CCCC(Nc4cccc5cnccc45)C3)c2)c1` (stereo not shown) [Compound 31], the half-life at 1 μM in data set [1] was < 5 min; in data set [4], > 120 min.

With `COC(=O)Cc1cccc(NC(=O)c2cccc(CN3CCC(Nc4cccc5cnccc45)C3)c2)c1` (stereo not shown) [Compound 33], the IC50 on ROCK2 is < 100 nM. Also, the figures for the half-life at 1 μM in data set [1] and in data set [4] were < 4 min and 59 min, respectively.

In the case of `COC(=O)Cc1ccc(NC(=O)c2cccc(CN3CCCC(Nc4cccc5cnccc45)C3)c2)cc1` (stereo not shown) [Compound 34], the IC50 against ROCK2 is < 100 nM. For the same compound, the half-life at 1 μM in data set [4] is > 120 min.

As for `COC(=O)c1ccc(NC(=O)c2cccc(CN3CCC(Nc4cccc5cnccc45)C3)c2)cc1` (stereo not shown) [Compound 35], the concentration for half-maximal inhibition (IC50) on ROCK2 was < 100 nM. Besides, the half-life at 1 μM in data set [4] is > 120 min.

`COC(=O)Cc1ccc(NC(=O)c2cccc(CN3CCC(Nc4cccc5cnccc45)C3)c2)cc1` (stereo not shown) [Compound 36]: the IC50 against ROCK2 was < 100 nM. Further, the half-life at 1 μM was 24 min in data set [1] and > 120 min in data set [4].

On to `COC(=O)c1cccc(NC(=O)c2cccc(CN3CCCC(Nc4ccc5[nH]ncc5c4)C3)c2)c1` (stereo not shown) [Compound 37], for which the IC50 against ROCK2 was < 100 nM. Also, the half-life at 1 μM in data set [4] is > 120 min.

As for `COC(=O)Cc1cccc(NC(=O)c2cccc(CN3CCCC(Nc4ccc5[nH]ncc5c4)C3)c2)c1` (stereo not shown) [Compound 38], the half-life at 1 μM in data set [4] is > 120 min.

As for `COC(=O)c1ccc(NC(=O)c2cccc(CN3CCCC(Nc4ccc5[nH]ncc5c4)C3)c2)cc1` (stereo not shown) [Compound 39], the half-life at 1 μM in data set [4] is > 120 min.

Regarding `COC(=O)Cc1ccc(NC(=O)c2cccc(CN3CCCC(Nc4ccc5[nH]ncc5c4)C3)c2)cc1` (stereo not shown) [Compound 40], the half-life at 1 μM in data set [1] is 40 min; in data set [4], > 120 min.

In the case of `COC(=O)c1cccc(NC(=O)Cc2cccc(CN3CCCC(Nc4ccc5[nH]ncc5c4)C3)c2)c1` (stereo not shown) [Compound 41], the IC50 against ROCK2 is < 100 nM. In addition, the half-life at 1 μM was 10 min in data set [1] and > 120 min in data set [4].

Regarding `COC(=O)Cc1cccc(NC(=O)Cc2cccc(CN3CCCC(Nc4ccc5[nH]ncc5c4)C3)c2)c1` (stereo not shown) [Compound 42], the IC50 on ROCK2 is < 100 nM. Further, in data set [1], the half-life at 1 μM is < 5 min.

Consider `COC(=O)c1ccc(NC(=O)Cc2cccc(CN3CCCC(Nc4ccc5[nH]ncc5c4)C3)c2)cc1` (stereo not shown) [Compound 43], for which the half-life at 1 μM in data set [4] is > 120 min.

Take `COC(=O)Cc1ccc(NC(=O)Cc2cccc(CN3CCCC(Nc4ccc5[nH]ncc5c4)C3)c2)cc1` (stereo not shown) [Compound 44]: at ROCK2, the IC50 is < 100 nM. For the same compound, in data set [1], the half-life at 1 μM is < 5 min.

On to `O=C(O)c1cccc(CN2CCCC(Nc3ccc4[nH]ncc4c3)C2)c1` (stereo not shown) [Met1, 3-({3-[(1H-indazol-5-yl)amino]piperidin-1-yl}methyl)benzoic acid], for which, in data set [2], the “functional activity in the MLC phosphorylation assay (in words)” value is “functionally inactive compound; also recorded: devoid of functional activity” and the EC50 was > 10000 nM.

The IC50 is the concentration needed to halve the response being measured. Higher therefore signals weaker potency. As a reminder, the EC50 is the midpoint of the concentration-response curve. The low end stands for greater potency, the high end for weaker potency.
